Source: the supplement of paper PMC8149375

Columns and labels:
Details in all cases: treatment: drug + dasatinib (fixed dose, not stated); 5 days
[1] = tested on: 769-P; assay: GI50 of drug in presence of dasatinib; higher = less potent
Method: (§1)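 Primary HTS combination arm: 8 RCC cell lines treated with 8 doses (up to 10 uM) of each library drug plus a fixed dose of dasatinib (dose not stated) for 5 days; viability read by CellTiter-Glo and normalised to DMSO. GI50 was fitted with XLfit, AUC is the area under the dose-response curve, and minimum viability is the lowest fraction of DMSO viability across doses.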

[2] = tested on: 786-O; assay: as above
Method: as §1

[3] = tested on: A498; assay: as above
Method: as §1

[4] = tested on: ACHN; assay: as above
Method: as §1

[5] = tested on: CAKI-1; assay: as above
Method: as §1

[6] = tested on: SN12C; assay: as above
Method: as §1

[7] = tested on: TK-10; assay: as above
Method: as §1

[8] = tested on: UO-31; assay: as above
Method: as §1

[9] = tested on: 769-P; assay: minimum viability across doses, drug + dasatinib, relative to DMSO (fraction); higher = less growth inhibition
Method: as §1

[10] = tested on: 786-O; assay: as above
Method: as §1

[11] = tested on: A498; assay: as above
Method: as §1

[12] = tested on: ACHN; assay: as above
Method: as §1

[13] = tested on: CAKI-1; assay: as above
Method: as §1

[14] = tested on: SN12C; assay: as above
Method: as §1

[15] = tested on: TK-10; assay: as above
Method: as §1

[16] = tested on: UO-31; assay: as above
Method: as §1

[17] = tested on: 769-P; assay: AUC of dose-response viability curve, drug + dasatinib, normalised to DMSO (arbitrary (AUC of normalised viability)); higher = less growth inhibition
Method: as §1

[18] = tested on: 786-O; assay: as above
Method: as §1

[19] = tested on: A498; assay: as above
Method: as §1

[20] = tested on: ACHN; assay: as above
Method: as §1

[21] = tested on: CAKI-1; assay: as above
Method: as §1

[22] = tested on: SN12C; assay: as above
Method: as §1

[23] = tested on: TK-10; assay: as above
Method: as §1

[24] = tested on: UO-31; assay: as above
Method: as §1

GI50 of drug [2] | GI50 of drug [4] | Structure (SMILES) | GI50 of drug [1] | GI50 of drug [3] | GI50 of drug [5] | GI50 of drug [6] | GI50 of drug [7] | GI50 of drug [8] | minimum viability across doses [9] | minimum viability across doses [10] | minimum viability across doses [11] | minimum viability across doses [12] | minimum viability across doses [13] | minimum viability across doses [14] | minimum viability across doses [15] | minimum viability across doses [16] | AUC of dose-response viability curve [17] | AUC of dose-response viability curve [18] | AUC of dose-response viability curve [19] | AUC of dose-response viability curve [20] | AUC of dose-response viability curve [21] | AUC of dose-response viability curve [22] | AUC of dose-response viability curve [23] | AUC of dose-response viability curve [24]
18.1 nM | 27.9 nM | COc1cc(OC)c(/C=C/S(=O)(=O)Cc2ccc(OC)c(NCC(=O)[O][Na])c2)c(OC)c1 + Cc1nc(Nc2ncc(C(=O)Nc3c(C)cccc3Cl)s2)cc(N2CCN(CCO)CC2)n1 [dasatinib] | 31.6 nM | 78.6 nM | 15.7 nM | 163 nM | 148 nM | 58.6 nM | 0.0648 | 0.0033 | 0.138 | 0.088 | 0.0849 | 0.184 | 0.292 | 0.00998 | 1.04 | 0.766 | 1.71 | 1.18 | 0.99 | 1.67 | 1.79 | 1.28
2860 nM | 5.77 nM | COc1cc2ncnc(Nc3cccc(Br)c3)c2cc1OC.Cl + Cc1nc(Nc2ncc(C(=O)Nc3c(C)cccc3Cl)s2)cc(N2CCN(CCO)CC2)n1 [dasatinib] | 111 nM | > 10000 nM | 2490 nM | > 10000 nM | 884 nM | 8520 nM | 0.157 | 0.0127 | 0.835 | 0.181 | 0.237 | 0.547 | 0.124 | 0.0122 | 1.69 | 2.14 | 3.5 | 1.18 | 2.22 | 2.32 | 2.19 | 2.94
1060 nM | 729 nM | NCC(=O)Nc1ccc(-n2nc(C(F)(F)F)cc2-c2ccc3c(ccc4ccccc43)c2)cc1 + Cc1nc(Nc2ncc(C(=O)Nc3c(C)cccc3Cl)s2)cc(N2CCN(CCO)CC2)n1 [dasatinib] | 2650 nM | 2100 nM | 3650 nM | 4510 nM | 2750 nM | 2580 nM | 0.0325 | 0.00632 | 0.0159 | 0.0394 | 0.00695 | 0.00289 | 0.177 | 0.0147 | 2.22 | 1.94 | 2.71 | 1.81 | 2.5 | 2.31 | 2.41 | 2.72
149 nM | 26.5 nM | O=C(NOCC(O)CO)c1cc(Br)c(F)c(F)c1Nc1ccc(I)cc1F (configuration not stated) + Cc1nc(Nc2ncc(C(=O)Nc3c(C)cccc3Cl)s2)cc(N2CCN(CCO)CC2)n1 [dasatinib] | 800 nM | 1560 nM | 680 nM | 1220 nM | 2540 nM | 1690 nM | 0.278 | 0.327 | 0.344 | 0.279 | 0.133 | 0.357 | 0.404 | 0.164 | 2.06 | 1.75 | 2.39 | 1.45 | 1.91 | 2.1 | 2.23 | 2.59
266 nM | 13.5 nM | O=C(NOC[C@H](O)CO)c1ccc(F)c(F)c1Nc1ccc(I)cc1F + Cc1nc(Nc2ncc(C(=O)Nc3c(C)cccc3Cl)s2)cc(N2CCN(CCO)CC2)n1 [dasatinib] | 74.4 nM | 259 nM | 148 nM | 233 nM | 335 nM | 141 nM | 0.173 | 0.377 | 0.302 | 0.3 | 0.0721 | 0.308 | 0.296 | 0.0632 | 1.42 | 1.85 | 1.85 | 1.36 | 1.51 | 1.75 | 1.91 | 1.6
> 10000 nM | > 10000 nM | COc1cccc(-c2cc(=O)c3ccccc3o2)c1N + Cc1nc(Nc2ncc(C(=O)Nc3c(C)cccc3Cl)s2)cc(N2CCN(CCO)CC2)n1 [dasatinib] | > 10000 nM | > 10000 nM | > 10000 nM | > 10000 nM | > 10000 nM | > 10000 nM | 0.645 | 0.541 | 0.908 | 0.511 | 0.612 | 0.658 | 0.655 | 1.08 | 2.48 | 2.58 | 3.37 | 2.01 | 2.27 | 2.49 | 2.57 | 3.99
174 nM | 19 nM | CC(=O)c1c(C)c2cnc(Nc3ccc(N4CCNCC4)cn3)nc2n(C2CCCC2)c1=O.Cl + Cc1nc(Nc2ncc(C(=O)Nc3c(C)cccc3Cl)s2)cc(N2CCN(CCO)CC2)n1 [dasatinib] | 231 nM | > 10000 nM | 179 nM | 1190 nM | 523 nM | 1530 nM | 0.0419 | 0.174 | 0.566 | 0.0923 | 0.0887 | 0.368 | 0.186 | 0.166 | 1.8 | 1.87 | 2.92 | 1.32 | 1.71 | 2.1 | 2.06 | 2.58
1210 nM | 19.8 nM | CCN(CC)CCCCNc1ncc2cc(-c3cc(OC)cc(OC)c3)c(NC(=O)NC(C)(C)C)nc2n1 + Cc1nc(Nc2ncc(C(=O)Nc3c(C)cccc3Cl)s2)cc(N2CCN(CCO)CC2)n1 [dasatinib] | 1820 nM | 3570 nM | 80.1 nM | 366 nM | 1390 nM | 696 nM | 0.207 | 0.00578 | 0.139 | 0.042 | 0.0229 | 0.0905 | 0.258 | 0.0119 | 2.13 | 2.02 | 2.67 | 1.28 | 1.31 | 1.9 | 2.18 | 2.28
